Structures can show the parent of a compound that is named as a salt.
What was measured:
[1] = cited from earlier work
murine atria [2] = test system: murine atria
Procedure: Fixation for Transmission Electron Microscopy (TEM): Atria were dissected and fixed overnight in 2% glutaraldehyde at 4° C. for resin embedding and ultramicrotomy as previously described (Veeraraghavan R, et al. Pflugers Arch. 2015 467:2093-2105; Veeraraghavan R, et al. Elife. 2018 7).
Transmission Electron Microscopy (TEM): TEM images of the ID, particularly gap junctions (GJs) and mechanical junctions (MJs), were obtained at 60,000× magnification on a FEI Tecnai G2 Spirit electron microscope. Intermembrane distance at various ID sites was quantified using ImageJ (NIH), as previously described (Veeraraghavan R, et al. Pflugers Arch. 2015 467:2093-2105; Veeraraghavan R, et al. Elife. 2018 7).

[3] = test system: Langendorff-perfused mouse hearts; conditions: VEGF 500 pg/ml, perfused 60 minutes; vehicle 100±9%; n=3 hearts/group
Procedure: (§1) Langendorff preparations: For optical mapping and ex vivo electrocardiography (ECG) studies, hearts were perfused (at 40-55 mm Hg) in a Langendorff configuration with oxygenated, modified Tyrode's solution (containing, in mM: NaCl 140, KCl 5.4, MgCl2 0.5, dextrose 5.6, HEPES 10; pH adjusted to 7.4) at 37° C. as previously described (Veeraraghavan R, et al. Pflugers Arch. 2015 467:2093-2105; Veeraraghavan R, et al. Elife. 2018 7; Radwanski P B, et al. Cardiovascular research. 2015 106:143-52; Radwanski P B, et al. Heart rhythm. 2010 7:1428-35; Veeraraghavan R and Poelzing S. Cardiovascular research. 2008 77:749-56.

mouse hearts = conditions: VEGF high dose (500 pg/ml) vs. untreated controls
From the text: Primary Antibodies: The following primary antibodies were used for Western immunoblotting and fluorescence microscopy studies: connexin43 (Cx43; rabbit polyclonal; Sigma C6219); connexin40 (Cx40; rabbit polyclonal; ThermoFisher Scientific 36-4900); N-cadherin (N-cad; mouse monoclonal; BD Biosciences 610920); cardiac isoform of the voltage-gated sodium channel (Nav1.5; rabbit polyclonal; custom antibody (Veeraraghavan R, et al. Elife. 2018 7)); and the sodium channel β subunit (β1; rabbit polyclonal; custom antibody (Veeraraghavan R, et al. Elife. 2018 7))
Western Immunoblotting: Whole cell lysates of mouse hearts frozen using liquid nitrogen were prepared as previously described (Veeraraghavan R, et al. Elife. 2018 7; Koleske M, et al. The Journal of general physiology. 2018; Struckman H L, et al. Microsc Microanal. 2020:1-9). These were electrophoresed on 4-15% TGX Stain-free gels (BioRad, Hercules, Calif.) before being transferred onto a nitrocellulose membrane. The membranes were probed with primary antibodies against Cx43, Cx40, Nav1.5 and […] as well as mouse monoclonal antibody against GAPDH (loading control; Fitzgerald Industries, Acton, Mass.), followed by goat anti-rabbit and goat anti-mouse HRP-conjugated secondary antibodies (Promega, Madison, Wis.). Signals were detected by chemiluminescence using SuperSignal West Femto Extended Duration Substrate (ThermoFisher Scientific, Grand Island, N.Y.) and imaged using a Chemidoc MP imager (BioRad, Hercules, Calif.).

[4] = test system: Langendorff-perfused mouse hearts
Procedure: as §1
Optical Mapping and Volume-conducted Electrocardiography (ECG): Optical voltage mapping was performed using the voltage sensitive dye, di-4-ANEPPS (15 μM; ThermoFisher Scientific, Grand Island, N.Y.), as previously described (Veeraraghavan R, et al. Pflugers Arch. 2015 467:2093-2105; Veeraraghavan R, et al. Pflugers Arch. 2016 468:1651-61; Veeraraghavan R and Poelzing S. Cardiovascular research. 2008 77:749-56), in order to quantify conduction velocity. Motion was suppressed by adding blebbistatin (10 μM) to the perfusate. Preparations were excited by 510 nm light and fluorescent signals passed through a 610 nm longpass filter (Newport, Irvine, Calif.) and recorded at 1000 frames/sec using a MiCAM Ultima-L CMOS camera (SciMedia, Costa Mesa, Calif.). Activation time was defined as the time of the maximum first derivative of the AP (Girouard S D, et al. J Cardiovasc Electrophysiol. 1996 7:1024-38), and activation times were fitted to a parabolic surface (Bayly P V, et al. IEEE Trans Biomed Eng. 1998 45:563-71). Gradient vectors evaluated along this surface were averaged along the fast axis of propagation (±15°) to quantify CV.

mice = conditions: intraperitoneal VEGF 10 or 50 ng/kg; epinephrine 1.5 mg/kg and caffeine 120 mg/kg
Procedure: In vivo ECG: Continuous ECG recordings (PL3504 PowerLab 4/35, ADInstruments) were obtained from mice anesthetized with isoflurane (1-1.5%) as previously described (Koleske M, et al. The Journal of general physiology. 2018). Briefly, after baseline recording (5 min.), animals received either intraperitoneal VEGF (10 or 50 ng/kg; Sigma) or vehicle (PBS). After an additional 20 min, animals were injected intraperitoneally with epinephrine (1.5 mg/kg; Sigma) and caffeine (120 mg/kg; Sigma) challenge and ECG recording continued for 40 minutes. ECG recordings were analyzed using the LabChart 8 software (ADInstruments).

murine atria [5] = test system: murine atria; remark: listed apart in the source
From the text: (§2) Cryopreservation: Hearts were embedded in optimal cutting temperature compound and frozen using liquid nitrogen for cryosectioning and fluorescent immunolabeling as in previous studies (Veeraraghavan R, et al. Pflugers Arch. 2015 467:2093-2105; Veeraraghavan R, et al. Pflugers Arch. 2016 468:1651-61; Veeraraghavan R, et al. Elife. 2018 7; Veeraraghavan R and Gourdie R. Molecular biology of the cell. 2016 27:3583-3590). These samples were used for light microscopy experiments as described below.
(§3) Fluorescent Immunolabeling: Immuno-fluorescent labeling of cryosections (5 μm thickness) of fresh-frozen myocardium was performed, as previously described (Veeraraghavan R, et al. Pflugers Arch. 2015 467:2093-2105; Veeraraghavan R, et al. Elife. 2018 7; Koleske M, et al. The Journal of general physiology. 2018; Radwanski P B, et al. JACC: Basic to Translational Science. 2016 1:251-266). Briefly, cryosections were fixed with paraformaldehyde (2%, 5 minutes at room temperature), permeabilized with Triton X-100 (0.2% in PBS for 15 minutes at room temperature) and treated with blocking agent (1% BSA, 0.1% triton in PBS for 2 hours at room temperature) prior to labeling with primary antibodies (overnight at 4° C.). Samples were then washed in PBS (3×5 minutes in PBS at room temperature) prior to labeling with secondary antibodies.
For confocal microscopy, samples were then labeled with goat anti-mouse and goat anti-rabbit secondary antibodies conjugated to Alexa 405, Alexa 488, Alexa 568 and Alexa 647 were used (1:8000; ThermoFisher Scientific, Grand Island, N.Y.). Simultaneous labeling with two rabbit or mouse primary antibodies was accomplished by direct fluorophore conjugation of primary antibodies (Zenon labeling kits, ThermoFisher Scientific, Grand Island, N.Y.). Samples were then washed in PBS (3×5 minutes in PBS at room temperature) and mounted in ProLong Gold (Invitrogen, Rockford, Ill.). For STimulated Emission Depletion (STED) microscopy, samples were prepared similar to confocal microscopy but labeled with Alexa 594 and Atto 647N fluorophores. For STochastic Optical Reconstruction Microscopy (STORM), samples were labeled with Alexa 647 and Biotium CF 568 fluorophores. STORM samples were then washed in PBS (3×5 minutes in PBS at room temperature) and optically cleared using Scale U2 buffer (48 hours at 4° C.) prior to imaging (Veeraraghavan R, et al. Pflugers Arch. 2016 468:1651-61; Veeraraghavan R, et al. Elife. 2018 7; Veeraraghavan R and Gourdie R. Molecular biology of the cell. 2016 27:3583-3590).
Single Molecule Localization: STORM imaging was performed using a Vutara 352 microscope (Bruker Nano Surfaces, Middleton, Wis.) equipped with biplane 3D detection, and fast sCMOS imaging achieving 20 nm lateral and 50 nm axial resolution, as previously described (Veeraraghavan R, et al. Elife. 2018 7; Veeraraghavan R and Gourdie R. Molecular biology of the cell. 2016 27:3583-3590; Struckman H L, et al. Microsc Microanal. 2020:1-9; Bonilla I M, et al. Sci Rep. 2019 9:10179). Individual fluorophore molecules were localized with a precision of 10 nm. The two-color channels were precisely registered using localized positions of several TetraSpeck Fluorescent Microspheres (ThermoFisher Scientific, Carlsbad, Calif.) scattered throughout the field of view, with the procedure being repeated at the start of each imaging session. Protein clustering and spatial organization were quantitatively assessed from single molecule localization data using STORM-RLA, a machine learning-based cluster analysis approach, as previously described (Veeraraghavan R and Gourdie R. Molecular biology of the cell. 2016 27:3583-3590).

murine atria [6] = conditions: VEGF-treated vs. control
From the text: as §2, §3
For confocal microscopy, samples were then labeled with goat anti-mouse and goat anti-rabbit secondary antibodies conjugated to Alexa 405, Alexa 488, Alexa 568 and Alexa 647 were used (1:8000; ThermoFisher Scientific, Grand Island, N.Y.). Simultaneous labeling with two rabbit or mouse primary antibodies was accomplished by direct fluorophore conjugation of primary antibodies (Zenon labeling kits, ThermoFisher Scientific, Grand Island, N.Y.). Samples were then washed in PBS (3×5 minutes in PBS at room temperature) and mounted in ProLong Gold (Invitrogen, Rockford, Ill.). For STimulated Emission Depletion (STED) microscopy, samples were prepared similar to confocal microscopy but labeled with Alexa 594 and Atto 647N fluorophores. […]

[7] = both low (100 pg/ml) and high (500 pg/ml) doses vs. untreated controls

O[C@H](c1cc(C(F)(F)F)nc2c(C(F)(F)F)cccc12)[C@@H]1CCCCN1 (relative stereo) [Mefloquine hydrochloride, (R*,S*)-(±)-alpha-2-piperidinyl-2,8-bis(trifluoromethyl)-4-quinolinemethanol]
Solubility in ethanol ([1]; ethanol): soluble
Solubility in water ([1]; water): slightly soluble

VEGF
Intermembrane distance at GJ-adjacent sites (murine atria [2]; [7]): significantly increased
Intermembrane distance at MJ-adjacent sites (murine atria [2]; [7]): significantly increased
Dose dependence of ID swelling (murine atria [2]; low vs. high dose of VEGF): dose-dependent fashion at GJ-adjacent perinexi but not near MJ
Levels of FITC-dextran extravasated relative to vehicle controls [3]: 201±7%
Expression level of Cx43 (mouse hearts): no significant difference
Expression level of N-cad (mouse hearts): no significant difference
Expression level of Nav1.5 (mouse hearts): no significant difference
Expression level of β1 (mouse hearts): no significant difference
Expression of Cx40 (mouse hearts): slightly elevated
P wave duration ([4]; 30 minutes of VEGF perfusion (100 and 500 pg/ml) vs. untreated control): significant P-wave prolongation
Incidence of burst pacing-induced atrial arrhythmias ([4]; VEGF 100 and 500 pg/ml, 30 minutes, 10 s burst pacing at 50, 40, 30 ms): increased the incidence of burst pacing-induced atrial arrhythmias in dose-dependent fashion
Atrial conduction velocity ([4]; VEGF 100 and 500 pg/ml, 30 minutes, paced at cycle length 100 ms): significantly and dose-dependently decreased
Atrial arrhythmias in vivo after caffeine and epinephrine challenge (mice): elicited atrial arrhythmias in VEGF-treated mice but not in untreated controls
β1 density at N-cad-rich plicate ID sites (murine atria [5]; VEGF treated hearts vs. control): without significant changes
Nav1.5 enrichment ratio at N-cad-rich plicate ID sites (murine atria [5]; VEGF treated hearts, control 6.5±0.4): 4.6±0.4
Nav1.5 enrichment ratio at Cx43-adjacent perinexal sites (murine atria [5]; VEGF treated hearts, control 10.5±0.3): 6.9±0.8
β1 enrichment ratio at Cx43-adjacent perinexal sites (murine atria [5]; VEGF treated hearts, control 10.7±1.9): 5.4±0.7
% of ID-localized Nav1.5 signal at N-cad-rich plicate ID sites (murine atria [5]; VEGF treated hearts, control 35±2%): 26±3%
% of ID-localized Nav1.5 signal at Cx43-adjacent perinexal sites (murine atria [5]; VEGF treated hearts, control 59±2%): 32±3%
% of ID-localized β1 signal at Cx43-adjacent perinexal sites (murine atria [5]; VEGF treated hearts, control 69±4%): 49±3%
Nav1.5 enrichment ratio near Cx43 (STED) (murine atria [6]; <100 nm from Cx43): significantly decreased
β1 enrichment ratio near Cx43 (STED) (murine atria [6]; <100 nm from Cx43): significantly decreased
Nav1.5 enrichment ratio at N-cad-rich sites (STED) (murine atria [6]): trended towards a decrease
